# In publication PMC8963254, “Effects of Lysine N-ζ-Methylation in Ultrashort Tetrabasic Lipopeptides (UTBLPs) on the Potentiation of Rifampicin, Novobiocin, and Niclosamide in Gram-Negative Bacteria” (Antibiotics, 2022):
# Read-outs that look alike come from different tables or passages of the source. Residues, ends and D or L forms follow the SMILES beside them. *: point of attachment. Octanoyl = CCCCCCCC(=O)*
# Columns and labels:
# [1] = test system: E. coli 94474; assay: microbe, parasite or virus in culture; assay type: cell-based, Escherichia coli; conditions: 94474, 18 h
# In short: (§1)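 Minimum inhibitory concentration came from a CLSI broth dilution assay: 18 h at 37 °C, inoculum 5 × 10^5 CFU/mL final.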
# [2] = test system: E. coli 94393; assay: microbe, parasite or virus in culture; assay type: cell-based, Escherichia coli; conditions: 94393, 18 h
# In short: as §1
# [3] = test system: E. faecalis ATCC 29212; assay type: cell-based, Enterococcus faecalis; conditions: ATCC 29212, 18 h
# In short: as §1
# [4] = test system: E. faecium ATCC 27270; assay type: cell-based, Enterococcus faecium
# In short: (§2)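 Values derive from a two-agent checkerboard with an 18 h, 37 °C incubation. FICI cut-offs: ≤0.5 synergy, 0.5–4 additive, >4 antagonism.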
# [5] = test system: A. baumannii ATCC 17978; assay type: cell-based, Acinetobacter baumannii; conditions: for MICUTBLP: UTBLP alone
# In short: as §2
# [6] = test system: A. baumannii 92247; assay type: cell-based, Acinetobacter baumannii; conditions: for MICUTBLP: UTBLP alone
# In short: as §2
# [7] = test system: A. baumannii AB027; assay type: cell-based, Acinetobacter baumannii; conditions: for MICUTBLP: UTBLP alone
# In short: as §2
# [8] = test system: K. pneumoniae 113250; assay type: cell-based, Klebsiella pneumoniae; conditions: for MICUTBLP: UTBLP alone
# In short: as §2
# [9] = test system: P. aeruginosa PA259-96196; assay type: cell-based, Pseudomonas aeruginosa; conditions: for MICUTBLP: UTBLP alone
# In short: as §2
# [10] = test system: P. aeruginosa PAO1; assay type: cell-based, Pseudomonas aeruginosa; conditions: for MICUTBLP: UTBLP alone
# In short: as §2
# [11] = test system: S. aureus ATCC 29213; assay type: cell-based, Staphylococcus aureus; conditions: ATCC 29213, 18 h
# In short: as §1
# [12] = test system: MRSA ATCC 33592; assay type: cell-based, Staphylococcus aureus; conditions: ATCC 33592, 18 h
# In short: as §1
# [13] = test system: MRSE 61589; assay type: cell-based, Staphylococcus epidermidis
# In short: as §2
# [14] = test system: MSSE 81388; assay type: cell-based, Staphylococcus epidermidis
# In short: as §2
# [15] = test system: E. cloacae 118564; assay type: cell-based, Enterobacter cloacae; conditions: for MICUTBLP: UTBLP alone
# In short: as §2
# [16] = test system: E. coli ATCC 25922; assay type: cell-based, Escherichia coli; conditions: ATCC 25922, 18 h
# In short: as §1
# [17] = UTBLP alone, plate with chloramphenicol
# [18] = UTBLP in combination with chloramphenicol
# [19] = chloramphenicol in combination with the UTBLP
# [20] = UTBLP in combination with niclosamide
# [21] = UTBLP in combination with novobiocin
# [22] = UTBLP in combination with rifampicin
# [23] = niclosamide in combination with the UTBLP
# [24] = novobiocin in combination with the UTBLP
# [25] = rifampicin in combination with the UTBLP
smiles,measurement,setting,value
CCCCCCCC(=O)NCCCC[C@H](NC(=O)CCCCCCC)C(=O)N[C@@H](CCCCN)C(=O)N[C@@H](CCCCN)C(=O)N[C@@H](CCCCN)C(=O)N[C@@H](CCCCN)C(N)=O [UTBLP 5] (Octanoyl-K(Octanoyl)KKKK-NH2),MIC,[1],128 µg/mL
same,MIC,[2],32 µg/mL
same,MIC,[3],32 µg/mL
same,Interpretation,[4]; UTBLP + chloramphenicol,Additive (0.5 < x ≤ 4 is additive)
same,MICUTBLP,[4]; [17],32 µg/mL
same,MICUTBLP [MICcombo],[4]; [18],8 µg/mL
same,MICchloramphenicol [MICcombo],[4]; [19],2 µg/mL
same,Interpretation,[5]; UTBLP + chloramphenicol,Additive (0.5 < x ≤ 4 is additive)
same,Interpretation,[5]; UTBLP + niclosamide,Synergy (FICI ≤ 0.5 is synergistic)
same,Interpretation,[5]; UTBLP + novobiocin,Synergy (FICI ≤ 0.5 is synergistic)
same,Interpretation,[5]; UTBLP + rifampicin,Synergy (FICI ≤ 0.5 is synergistic)
same,MICUTBLP,[5]; plate with chloramphenicol,64 µg/mL
same,MICUTBLP,[5]; plate with niclosamide,64 µg/mL
same,MICUTBLP,[5]; plate with novobiocin,64 µg/mL
same,MICUTBLP,[5]; plate with rifampicin,64 µg/mL
same,MICUTBLP [MICcombo],[5]; [18],4 µg/mL
same,MICUTBLP [MICcombo],[5]; [20],0.5 µg/mL
same,MICUTBLP [MICcombo],[5]; [21],2 µg/mL
same,MICUTBLP [MICcombo],[5]; [22],1 µg/mL
same,MICantibiotic [MICcombo],[5]; [19],32 µg/mL
same,MICantibiotic [MICcombo],[5]; [23],1 µg/mL
same,MICantibiotic [MICcombo],[5]; [24],0.125 µg/mL
same,MICantibiotic [MICcombo],[5]; [25],0.031 µg/mL
same,Interpretation,[6]; UTBLP + novobiocin,Synergy (FICI ≤ 0.5 is synergistic)
same,Interpretation,[6]; UTBLP + rifampicin,Synergy (FICI ≤ 0.5 is synergistic)
same,MICUTBLP,[6]; plate with novobiocin,32 µg/mL
same,MICUTBLP,[6]; plate with rifampicin,32 µg/mL
same,MICUTBLP [MICcombo],[6]; [21],1 µg/mL
same,MICUTBLP [MICcombo],[6]; [22],2 µg/mL
same,MICantibiotic [MICcombo],[6]; [24],0.125 µg/mL
same,MICantibiotic [MICcombo],[6]; [25],0.063 µg/mL
same,Interpretation,[7]; UTBLP + novobiocin,Synergy (FICI ≤ 0.5 is synergistic)
same,Interpretation,[7]; UTBLP + rifampicin,Synergy (FICI ≤ 0.5 is synergistic)
same,MICUTBLP,[7]; plate with novobiocin,128 µg/mL
same,MICUTBLP,[7]; plate with rifampicin,128 µg/mL
same,MICUTBLP [MICcombo],[7]; [21],1 µg/mL
same,MICUTBLP [MICcombo],[7]; [22],2 µg/mL
same,MICantibiotic [MICcombo],[7]; [24],0.25 µg/mL
same,MICantibiotic [MICcombo],[7]; [25],0.016 µg/mL
same,Interpretation,[8]; UTBLP + novobiocin,Synergy (FICI ≤ 0.5 is synergistic)
same,Interpretation,[8]; UTBLP + rifampicin,Synergy (FICI ≤ 0.5 is synergistic)
same,MICUTBLP,[8]; plate with novobiocin,> 128 µg/mL
same,MICUTBLP,[8]; plate with rifampicin,> 128 µg/mL
same,MICUTBLP [MICcombo],[8]; [21],16 µg/mL
same,MICUTBLP [MICcombo],[8]; [22],8 µg/mL
same,MICantibiotic [MICcombo],[8]; [24],1 µg/mL
same,MICantibiotic [MICcombo],[8]; [25],0.5 µg/mL
same,Interpretation,[9]; UTBLP + novobiocin,Synergy (FICI ≤ 0.5 is synergistic)
same,Interpretation,[9]; UTBLP + rifampicin,Synergy (FICI ≤ 0.5 is synergistic)
same,MICUTBLP,[9]; plate with novobiocin,128 µg/mL
same,MICUTBLP,[9]; plate with rifampicin,> 128 µg/mL
same,MICUTBLP [MICcombo],[9]; [21],4 µg/mL
same,MICUTBLP [MICcombo],[9]; [22],8 µg/mL
same,MICantibiotic [MICcombo],[9]; [24],16 µg/mL
same,MICantibiotic [MICcombo],[9]; [25],0.5 µg/mL
same,Interpretation,[10]; UTBLP + chloramphenicol,Synergy (FICI ≤ 0.5 is synergistic)
same,Interpretation,[10]; UTBLP + niclosamide,Synergy (FICI ≤ 0.5 is synergistic)
same,Interpretation,[10]; UTBLP + novobiocin,Synergy (FICI ≤ 0.5 is synergistic)
same,Interpretation,[10]; UTBLP + rifampicin,Synergy (FICI ≤ 0.5 is synergistic)
same,MICUTBLP,[10]; plate with chloramphenicol,> 128 µg/mL
same,MICUTBLP,[10]; plate with niclosamide,> 128 µg/mL
same,MICUTBLP,[10]; plate with novobiocin,> 128 µg/mL
same,MICUTBLP,[10]; plate with rifampicin,> 128 µg/mL
same,MICUTBLP [MICcombo],[10]; [18],2 µg/mL
same,MICUTBLP [MICcombo],[10]; [20],4 µg/mL
same,MICUTBLP [MICcombo],[10]; [21],16 µg/mL
same,MICUTBLP [MICcombo],[10]; [22],16 µg/mL
same,MICantibiotic [MICcombo],[10]; [19],2 µg/mL
same,MICantibiotic [MICcombo],[10]; [23],4 µg/mL
same,MICantibiotic [MICcombo],[10]; [24],8 µg/mL
same,MICantibiotic [MICcombo],[10]; [25],0.5 µg/mL
same,MIC,[11],64 µg/mL
same,MIC,[12],64 µg/mL
same,Interpretation,[13]; UTBLP + chloramphenicol,Additive (0.5 < x ≤ 4 is additive)
same,MICUTBLP,[13]; [17],8 µg/mL
same,MICUTBLP [MICcombo],[13]; [18],4 µg/mL
same,MICchloramphenicol [MICcombo],[13]; [19],4 µg/mL
same,Interpretation,[14]; UTBLP + chloramphenicol,Additive (0.5 < x ≤ 4 is additive)
same,MICUTBLP,[14]; [17],16 µg/mL
same,MICUTBLP [MICcombo],[14]; [18],8 µg/mL
same,MICchloramphenicol [MICcombo],[14]; [19],0.25 µg/mL
same,Interpretation,[15]; UTBLP + novobiocin,Synergy (FICI ≤ 0.5 is synergistic)
same,Interpretation,[15]; UTBLP + rifampicin,Synergy (FICI ≤ 0.5 is synergistic)
same,MICUTBLP,[15]; plate with novobiocin,> 128 µg/mL
same,MICUTBLP,[15]; plate with rifampicin,> 128 µg/mL
same,MICUTBLP [MICcombo],[15]; [21],16 µg/mL
same,MICUTBLP [MICcombo],[15]; [22],8 µg/mL
same,MICantibiotic [MICcombo],[15]; [24],0.5 µg/mL
same,MICantibiotic [MICcombo],[15]; [25],0.5 µg/mL
same,MIC,[16],64 µg/mL
